Legend:
human cathepsin B = target: T1, human cathepsin B (Homo sapiens, UniProt P07858); assay: Enzyme assay, human cathepsin B; type: biochemical
T1 construct: purchased Athens Research Technology
Source text: (§1) Recombinant cathepsin K enzymes from all species were expressed in E. coli, purified and activated. Human cathepsin F and cathepsin S were expressed in Baculovirus, purified and activated. Purified human cathepsins B and H (Athens Research Technology), cathepsin L (Calbiochem), and cathepsin V (R & D Systems) were purchased.
(§2) H-D-Ala_Leu-Lys-AMC was used as the substrate in assays of cathepsin K from non-rodent species (human, dog, rabbit and guinea pig), and Z-Leu-Arg-AMC was used as the substrate in assays of cathepsin K from rodent species (mouse and rat). […]
(§3) Assays were carried out in white polystyrene 96-well plates in a final volume of 100 µL. […] Plates were read in a Fluoroskan Ascent (Thermo Labsystems, Helsinki, Finland) in kinetic mode, with excitation and emission filters of 390 and 460 nm, respectively. Rates were determined by linear regression of the fluorescence/time data in Excel. Rates were fitted by non-linear regression to either the competitive inhibition equation, with the substrate concentration fixed at the value in the assay and the KM fixed to the value previously determined, or the IC50 equation using GraphPad Prism (GraphPad, version 6, San Diego, USA) to obtain Ki or IC50 values, respectively.

human cathepsin K = target: T2, human cathepsin K (Homo sapiens, UniProt P43235); assay: Kinetics of inhibition by progress curve analysis; type: biochemical
T2 construct: made in house; host or cells: E. coli
T2 sequence (P43235 115-329): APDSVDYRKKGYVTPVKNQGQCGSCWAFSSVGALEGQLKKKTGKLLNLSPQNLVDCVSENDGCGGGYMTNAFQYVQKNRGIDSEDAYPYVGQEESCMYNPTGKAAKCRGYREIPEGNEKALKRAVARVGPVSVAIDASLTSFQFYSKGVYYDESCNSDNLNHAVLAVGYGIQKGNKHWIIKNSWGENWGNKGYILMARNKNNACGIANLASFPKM
Protocol: The kinetics of MIV-711 inhibition of human recombinant cathepsin K were measured by progress curve analysis. Briefly, 100 µmol/L substrate and 0.5 nmol/L cathepsin K were combined in 0.5 mL of buffer in a quartz cuvette and the fluorescence measured continuously in a spectrofluorometer (Hitachi F-4500, Hitachi Scientific Instruments, Woking, UK). Excitation wavelength was 385 nm and emission wavelength was 460 nm and slits were 5 and 10 nm for excitation and emission, respectively. PMT voltage was 700 V and the response time was 0.01 s. Once a linear rate was established, 5 µL MIV-711 (final assay concentration between 10 and 50 nmol/L) or 5 µL DMSO control was added and data collected until a new equilibrium rate was achieved. Data were imported into GraphPad Prism and then fitted to the Morrison equation [26] to obtain kobs. The kobs values were plotted against the inhibitor concentration and fitted to a straight line to obtain kon and koff.

urine CTX-II = assay: Monkey urine CTX-II, multiple doses; type: in vivo, cynomolgus monkeys (Macaca fascicularis)
Protocol: Biomarkers such as NTX-I (bone resorption) and CTX-II (cartilage degradation) are typically measured in urine. Additional experiments in which urine was collected were therefore performed. In these experiments, four cynomolgus monkeys (Macaca fascicularis) were used (Aptuit, Edinburgh, UK). The animals were healthy young females weighing 3.5–4 kg. Animals were dosed with vehicle or MIV-711 via oral gavage at a dose volume of 5 mL/kg between 7:30 and 8:30 a.m. Animals first received vehicle via oral gavage for five consecutive days. After a washout period, the animals then received MIV-711 (30 µmol/kg) via oral gavage for five consecutive days.
Urine was collected between 8–12 a.m., 12 a.m.–4 p.m. and 4 p.m.–8 a.m. on Day 1 and Day 5 of respective treatment. Biomarkers were measured in each urine sample, corrected for creatinine, and the mean value of the three samples on Day 1 and Day 5 was calculated. The effect of MIV-711 was evaluated by comparing biomarkers in urine samples collected on Day 1 and Day 5 with respective vehicle sample. [drawing 3]
The quantification of CTX-I in monkey plasma samples and human serum samples was performed using a commercially available kit (Serum CrossLaps ELISA, IDS Nordic, Herlev, Denmark). The levels of CTX-I in monkey urine samples were measured using a commercially available kit (Urine BETA CrossLaps ELISA, IDS Nordic). […]

rabbit cathepsin K = target: T3, rabbit cathepsin K (Oryctolagus cuniculus, UniProt P43236); assay: Recombinant enzyme assay, rabbit cathepsin K; type: biochemical; conditions: footnote a: IC50
T3 construct: made in house; host or cells: E. coli
T3 sequence (P43236 115-329): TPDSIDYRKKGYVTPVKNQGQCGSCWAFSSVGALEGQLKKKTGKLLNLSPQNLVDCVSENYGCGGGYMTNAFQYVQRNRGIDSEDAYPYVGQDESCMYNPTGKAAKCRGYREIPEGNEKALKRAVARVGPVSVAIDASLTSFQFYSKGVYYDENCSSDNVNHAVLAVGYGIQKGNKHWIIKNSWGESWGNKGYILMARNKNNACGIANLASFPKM
Source text: as §1, §2, §3

## C#C[C@@H]1CN(C(=O)[C@H](CC(C)C)NC(=O)c2ccc(-c3nc(N4CCN(C)CC4)sc3F)cc2)[C@@H]2C(=O)CO[C@H]12 [MIV-711]
Human cathepsin B
  Ki: 1300 nM
Human cathepsin K; from koff
  residence time: about 90 s
Human cathepsin K; from kon and koff experiments, read-out: Ki from kinetic experiments
  Ki: 1.7 nM
Human cathepsin K; human cathepsin K
  koff rate: 0.008 s⁻¹
  kon rate: 4.6e+06 M⁻¹ s⁻¹
Urine CTX-II; 30 µmol/kg p.o. once daily for 5 days, creatinine-corrected
  Reduction of urinary CTX-II compared to vehicle: 71%
Urine CTX-II; single dose 30 µmol/kg p.o. (Day 1)
  Effect on urinary CTX-II compared to vehicle: unaffected
Rabbit cathepsin K
  IC50: 3.3 nM

Source: paper PMC5944028, “Nonclinical and clinical pharmacological characterization of the potent and selective cathepsin K inhibitor MIV-711” (Journal of Translational Medicine, 2018)
